# Measured values from article PMC8966664 (Frontiers in Pharmacology, 2022).
# Columns and labels:
# Format in all cases: in vivo, Sprague Dawley rats
# pyrrole-protein adducts [1] = assay: Formation of pyrrole-protein adducts in liver and serum/plasma of RTS-treated rats
# Method: (§1) EX and GA were dissolved in distilled water at 37°C for oral administration with the dosage of EX and GA as 500 mg/kg and 50 mg/kg. […] RTS was given following the last dose of distilled water/GA/EX. Detailed dosage regimens are described in Supplementary Figure S2. All rats were sacrificed at 48 h after the last dosing. Serum and liver samples were collected and stored at −80°C until use.
# The pyrrole-protein adducts were measured according to our previously developed method ([Lin et al., 2011]; [Ruan et al., 2014]). Briefly, 50 mg liver or 100 µL serum/plasma was mixed with acetone and centrifuged at 900 x g for 10 min. The precipitated protein was treated with silver nitrate (20 mg/ml) in ethanol containing 5% trifluoroacetic acid to release pyrrole moiety from the pyrrole-protein adducts. After centrifugation, an aliquot of the supernatant was incubated with 4-dimethylaminobenzaldehyde (20 mg/ml) at 56°C for 10 min. The mixture was filtered and subjected to LC-MS/MS analysis. 7,9-diGS-DHP was used as a standard with a concentration ranging from 0.2 to 2000 nM and underwent the same preparation process to construct a calibration curve. […] After centrifuging at 20,000 x g for 30 min, the supernatants were collected and analyzed by LC-MS/MS according to our previously developed methods ([Ma et al., 2019]; [He et al., 2021a]; [Ma et al., 2021]).
# The LC-MS/MS analysis was performed on an Agilent 6460 Triple Quadrupole LC/MS System using a Waters Acquity BEH C18 column (2.1 × 100 mm, […]). For the detection of pyrrole-protein adducts, the mobile phase of water containing 0.1% formic acid (A) and acetonitrile containing 0.1% formic acid (B) was used with a gradient elution as follows: 0–5 min, 35–95% B; 5.5–6 min, 95–35% B. The flow rate was 0.3 ml/min. The injection volume was 3 μL. […] The injection volume was 5 µL. The mass spectrometer was operated in multiple reactions monitoring for data acquisition.
# RTS-induced liver damage = assay: Histological examination (H&E) and scoring of liver damage, modified DeLeve's system; design: key to Central vein endothelial damage / Sinusoidal hemorrhage / Sinusoidal dilation / Coagulative necrosis / Apoptotic bodies / Subendothelial fibrosis / Sinusoid fibrosis / Subendothelial hemorrhage: 0-absent; 1-mild; 2-moderate; 3-severe; details: rats
# Method: as §1
# The largest lobe of the liver was sliced, fixed in 10% buffered-neutral formalin for 24 h, and embedded in wax. Sections of 5 µm in thickness were subjected to hematoxylin and eosin staining before being examined. Liver injury (necrosis, endothelial cell damage, and hemorrhage) was evaluated with a LEICA DM5000B Microscope (Leica, Heidelberg, Germany).
# Protective effects of EX and GA on RTS-induced hepatotoxicity were also evaluated by histopathological examination. […] The damage of sinusoidal endothelial cells was further measured by the immunofluorescence of RECA-1. […] The degrees of hemorrhage, sinusoidal dilation, and necrosis were assessed and scored (Table 2) according to a modified DeLeve’s system ([Deleve et al., 1999]) as summarized in Supplementary Table S3.
# [2] = tested on: sinusoidal endothelial cells; assay: Immunofluorescence of RECA-1 in liver sections; details: rats; EX or GA treated groups + RTS
# Method: as §1
# The largest lobe of the rat liver was sliced, cold-embedded in Tissue-Tek OCT compound, and processed for immunohistochemistry according to the Abcam IHC frozen sections staining protocol. The tissue slices were incubated with rat endothelial cell antigen (RECA)-1 antibody and Alexa Fluor 488-conjugated goat anti-mouse IgG, and then stained with DAPI and observed under Olympus FluoViewTM FV1000 confocal microscope.
# pyrrole-protein adducts [3] = assay: Toxicokinetic study: plasma kinetic profile of pyrrole-protein adducts; details: rats; GA 50 mg/kg + RTS 30 mg/kg vs RTS group
# Method: For the toxicokinetic study, jugular vein cannulation was performed on rats on the day before drug administration. The right jugular vein was cannulated with a polyethylene tube (0.4 mm i.d. × 0.8 mm o.d., SIMS Portex, United Kingdom) for blood sampling. The rats were maintained in individual metabolic cages and fasted overnight with free access to water. […] Saline (0.2 ml) containing 25 units of heparin/mL was injected after each blood sampling for compensation of blood withdrawal. The blood samples were then centrifuged at 3,000 x g for 30 min, and plasma samples were harvested and stored at −20°C until use.
# The pyrrole-protein adducts were measured according to our previously developed method ([Lin et al., 2011]; [Ruan et al., 2014]). Briefly, 50 mg liver or 100 µL serum/plasma was mixed with acetone and centrifuged at 900 x g for 10 min. […] After centrifuging at 20,000 x g for 30 min, the supernatants were collected and analyzed by LC-MS/MS according to our previously developed methods ([Ma et al., 2019]; [He et al., 2021a]; [Ma et al., 2021]). […]
# Data are expressed as mean ± SD. […] Toxicokinetic parameters were calculated by noncompartmental methods using WinNonlin version 4.0 (Pharsight, Mountain View, CA, United States). […] The inhibition constant (K i ) value of GA was determined by the secondary Lineweaver-Burk plots. […]
# [4] = multiple treatment (EX 500 mg/kg or GA 50 mg/kg) + RTS
# [5] = single treatment (EX 500 mg/kg or GA 50 mg/kg) + RTS
# [6] = multiple dose (EX 500 mg/kg/day or GA 50 mg/kg/day, 5 consecutive days) + RTS 40 mg/kg, 48 h after last dosing
# [7] = single dose (EX 500 mg/kg or GA 50 mg/kg) + RTS 40 mg/kg, 48 h after last dosing
compound,measurement,setting,value
"CC1(C)[C@@H](O)CC[C@]2(C)[C@H]3C(=O)C=C4[C@@H]5C[C@@](C)(C(=O)O)CC[C@]5(C)CC[C@@]4(C)[C@]3(C)CC[C@@H]12 [GA, 18β-glycyrrhetinic acid]",reduction of pyrrole-protein adducts in liver,pyrrole-protein adducts [1]; [4],32.5%
same,reduction of pyrrole-protein adducts in plasma,pyrrole-protein adducts [1]; [4],56.5%
same,reduction of pyrrole-protein adducts in liver,pyrrole-protein adducts [1]; [5],30.3%
same,reduction of pyrrole-protein adducts in plasma,pyrrole-protein adducts [1]; [5],50.8%
same,Apoptotic bodies,"RTS-induced liver damage; EX, GA or RTS alone",0
same,Central vein endothelial damage,"RTS-induced liver damage; EX, GA or RTS alone",0
same,Coagulative necrosis,"RTS-induced liver damage; EX, GA or RTS alone",0
same,Overall (sum of the scores from all individual parameters),"RTS-induced liver damage; EX, GA or RTS alone",0
same,Sinusoid fibrosis,"RTS-induced liver damage; EX, GA or RTS alone",0
same,Sinusoidal dilation,"RTS-induced liver damage; EX, GA or RTS alone",0
same,Sinusoidal hemorrhage,"RTS-induced liver damage; EX, GA or RTS alone",0
same,Subendothelial fibrosis,"RTS-induced liver damage; EX, GA or RTS alone",0
same,Subendothelial hemorrhage,"RTS-induced liver damage; EX, GA or RTS alone",0
same,RTS-induced hemorrhage and necrosis,RTS-induced liver damage; both single and multiple doses + RTS,significantly ameliorated
same,Apoptotic bodies,RTS-induced liver damage; [6],0
same,Central vein endothelial damage,RTS-induced liver damage; [6],1
same,Coagulative necrosis,RTS-induced liver damage; [6],0
same,Overall (sum of the scores from all individual parameters),RTS-induced liver damage; [6],2-5
same,Sinusoid fibrosis,RTS-induced liver damage; [6],0
same,Sinusoidal dilation,RTS-induced liver damage; [6],1-2
same,Sinusoidal hemorrhage,RTS-induced liver damage; [6],0-1
same,Subendothelial fibrosis,RTS-induced liver damage; [6],0
same,Subendothelial hemorrhage,RTS-induced liver damage; [6],0-1
same,Apoptotic bodies,RTS-induced liver damage; [7],0
same,Central vein endothelial damage,RTS-induced liver damage; [7],1
same,Coagulative necrosis,RTS-induced liver damage; [7],1
same,Overall (sum of the scores from all individual parameters),RTS-induced liver damage; [7],6-7
same,Sinusoid fibrosis,RTS-induced liver damage; [7],0
same,Sinusoidal dilation,RTS-induced liver damage; [7],2
same,Sinusoidal hemorrhage,RTS-induced liver damage; [7],1
same,Subendothelial fibrosis,RTS-induced liver damage; [7],0
same,Subendothelial hemorrhage,RTS-induced liver damage; [7],1-2
same,histopathological examination of liver,RTS-induced liver damage; substance alone,No obvious liver damage
same,RTS-induced damage of sinusoids (RECA-1 immunofluorescence),[2],significantly less
same,reduction of AUC0–1440min of pyrrole-protein adducts,pyrrole-protein adducts [3],16.2%
